Experimental data as given in patent publication US10941150B2, “Salt type and crystal type of 4h-pyrazolo [1, 5-alpha] benzimidazole compound and preparation method and intermediate thereof” (HUBEI BIO-PHARMACEUTICAL INDUSTRIAL TECHNOLOGICAL INSTITUTE …, priority 2015, dated 2021).
Read-outs that look alike come from different tables or passages of the source.

How the values were obtained:
MDA-MB-436 cells = experiment: Anti-proliferation test (CCK8), singly and combined with TMZ; assay type: cell-based; conditions: for IC50: 8 days; for PF50: PF50=[IC50 of the tested compound]/[IC50 at fixed TMZ concentration]
Method: (§1) MDA-MB-436 and MDA-MB-231 cells were seeded in a 96-well plate at a density of 500 and 2000 cell per well, respectively, and cultured overnight. The medium was RPMI 1640 containing 10% (v/v) FBS and 1% (v/v) penicillin-streptomycin. They were treated for 8 days after the compound to be tested was added. Cell viability was measured by CCK8 kit. Specifically, 10 µL CCK8 reagent was added to each well and incubated in a 5% CO2 incubator at 37° C. for 3 hours. After shaking for 10 minutes, the light absorbance (OD value) was measured with a Flexstation III (Molecular Device) at 450 nm.
(§2) For the test of compound combinations (in combination with DNA damage drugs), the PF50 value was used to calculate the synergistic effect of the drug. PF50=[IC50 of the tested compound]/[IC50 of the compound at a fixed DNA damage drug concentration]. Temozolomide (TMZ) was used as DNA damage drug in this study.

MDA-MB-231 cells = experiment: as above; assay type: cell-based; conditions: for IC50: 8 days; for PF50: PF50=[IC50 of the tested compound]/[IC50 at fixed TMZ concentration]
Method: as §1, §2

[1] = Solid stability test for Crystal type A under high temperature, high humidity and strong illumination; assay type: physicochemical
Method: The sample placed at 60° C. and 92.5% relative humidity was sealed with aluminum foil at the vial mouth, and the aluminum foil was pricked to ensure that the sample was fully exposed to the ambient air; the sample placed under strong illumination (5Klux) was sealed with a screw cap. The samples placed under different conditions were sampled and tested on the 10th day. The test results were compared with the initial test results on the 0th day.

[2] = Stability test for Crystal type A in different solvents; assay type: physicochemical; conditions: for Results (crystalline state by XRPD): 3 days
From the text: After being stirred for 3 days, the samples were centrifuged and the solid in all samples were collected. XRPD was used to determine the crystalline state.

[3] = Homo sapiens, MDA-MB-436, 192 h, MDA-MB-436, combined with 25uM TMZ, average, read-out: IC50_Avg
[4] = Homo sapiens, MDA-MB-436, 192 h, MDA-MB-436, combined with 25uM TMZ, run N=1, read-out: IC50_N = 1
[5] = Homo sapiens, MDA-MB-436, 192 h, MDA-MB-436, combined with 25uM TMZ, run N=2, read-out: IC50_N= 2
[6] = Homo sapiens, MDA-MB-436, 192 h, MDA-MB-436, used singly, average, read-out: IC50_Avg
[7] = Homo sapiens, MDA-MB-436, 192 h, MDA-MB-436, used singly, run N=1, read-out: IC50_N = 1
[8] = Homo sapiens, MDA-MB-436, 192 h, MDA-MB-436, used singly, run N=2, read-out: IC50_N= 2
[9] = MDA-MB-436, combined with 25uM TMZ
[10] = Homo sapiens, MDA-MB-231, 192 h, MDA-MB-231, combined with 1uM TMZ, average, read-out: IC50_Avg
[11] = Homo sapiens, MDA-MB-231, 192 h, MDA-MB-231, combined with 1uM TMZ, run N=1, read-out: IC50_N = 1
[12] = Homo sapiens, MDA-MB-231, 192 h, MDA-MB-231, combined with 1uM TMZ, run N=2, read-out: IC50_N = 2
[13] = Homo sapiens, MDA-MB-231, 192 h, MDA-MB-231, used singly, average, read-out: IC50_Avg
[14] = Homo sapiens, MDA-MB-231, 192 h, MDA-MB-231, used singly, run N=1, read-out: IC50_N = 1
[15] = Homo sapiens, MDA-MB-231, 192 h, MDA-MB-231, used singly, run N=2, read-out: IC50_N = 2
[16] = MDA-MB-231, combined with 1uM TMZ
[17] = Strong illumination (sealed), 5Klux, day 10

C[C@]1(c2nc3c(C(N)=O)cccc3[nH]2)CCCN1 [ABT-888, Veliparib]
IC50 (MDA-MB-436 cells; [3]): 0.018 µM
IC50 (MDA-MB-436 cells; [4]): 0.026 µM
IC50 (MDA-MB-436 cells; [5]): 0.01 µM
IC50 (MDA-MB-436 cells; [6]): 0.305 µM
IC50 (MDA-MB-436 cells; [7]): 0.444 µM
IC50 (MDA-MB-436 cells; [8]): 0.167 µM
PF50 (MDA-MB-436 cells; [9]): 17.14
IC50 (MDA-MB-231 cells; [10]): 30.7 µM
IC50 (MDA-MB-231 cells; [11]): 25.5 µM
IC50 (MDA-MB-231 cells; [12]): 36 µM
IC50 (MDA-MB-231 cells; [13]): 40.5 µM
IC50 (MDA-MB-231 cells; [14]): 44 µM
IC50 (MDA-MB-231 cells; [15]): 37 µM
PF50 (MDA-MB-231 cells; [16]): 1.32

CC(C)N1CCC(C)(c2cnn3c2[nH]c2cc(F)cc(C(N)=O)c23)CC1 [Compound 1, 6-fluoro-3-(1-isopropyl-4-methylpiperidin-4-yl)-4H-benzo[4,5]imidazo[1,2-b]pyrazol-8-carboxamide]
inhibitory effect on cell line (MDA-MB-436 cells; BRAC mutant MDA-MB-436 cell line): strong inhibitory effect
IC50 (MDA-MB-436 cells; [3]): 0.007 µM
IC50 (MDA-MB-436 cells; [4]): 0.009 µM
IC50 (MDA-MB-436 cells; [5]): 0.005 µM
IC50 (MDA-MB-436 cells; [6]): 0.071 µM
IC50 (MDA-MB-436 cells; [7]): 0.089 µM
IC50 (MDA-MB-436 cells; [8]): 0.053 µM
PF50 (MDA-MB-436 cells; [9]): 9.84
synergistic effect (MDA-MB-436 cells; combined with TMZ): good synergistic effect
IC50 (MDA-MB-231 cells; [10]): 4.86 µM
IC50 (MDA-MB-231 cells; [11]): 3.96 µM
IC50 (MDA-MB-231 cells; [12]): 5.75 µM
IC50 (MDA-MB-231 cells; [13]): 5.83 µM
IC50 (MDA-MB-231 cells; [14]): 6.21 µM
IC50 (MDA-MB-231 cells; [15]): 5.44 µM
PF50 (MDA-MB-231 cells; [16]): 1.20

CC(C)N1CCC(C)(c2cnn3c2[nH]c2cc(F)cc(C(N)=O)c23)CC1.O=C(O)/C=C\C(=O)O [Crystal type A, 6-fluoro-3-(1-isopropyl-4-methylpiperidin-4-yl)-4H-benzo[4,5]imidazo[1,2-b]pyrazol-8-formamide.maleate monohydrate]
Appearance ([1]; 60° C. (open), day 10): White powder
Content (%) ([1]; 60° C. (open), day 10): 98.5%
Total impurities (%) ([1]; 60° C. (open), day 10): 0.11%
Appearance ([1]; 92.5% RH (open), day 10): White powder
Content (%) ([1]; 92.5% RH (open), day 10): 99.5%
Total impurities (%) ([1]; 92.5% RH (open), day 10): 0.10%
Appearance [1, 17]: White powder
Content (%) [1, 17]: 99.4%
Total impurities (%) [1, 17]: 0.11%
Appearance ([1]; initial, day 0): White powder
Content (%) ([1]; initial, day 0): 98.9%
Total impurities (%) ([1]; initial, day 0): 0.10%
Appearance (3 days) ([2]; Acetone, 25° C.): Suspension
Results (crystalline state by XRPD) ([2]; Acetone, stirred at 25° C.): Crystal type A
Appearance (3 days) ([2]; Acetone:water = 1:2, 25° C.): Suspension
Results (crystalline state by XRPD) ([2]; Acetone:water = 1:2, stirred at 25° C.): Crystal type A
Appearance (3 days) ([2]; Acetonitrile:water = 1:1, 25° C.): Suspension
Results (crystalline state by XRPD) ([2]; Acetonitrile:water = 1:1, stirred at 25° C.): Crystal type A
Appearance (3 days) ([2]; Ethanol, 25° C.): Suspension
Results (crystalline state by XRPD) ([2]; Ethanol, stirred at 25° C.): Crystal type A
Appearance (3 days) ([2]; Ethanol:water = 3:1, 25° C.): Suspension
Results (crystalline state by XRPD) ([2]; Ethanol:water = 3:1, stirred at 25° C.): Crystal type A
Appearance (3 days) ([2]; Ethyl acetate, 25° C.): Suspension
Results (crystalline state by XRPD) ([2]; Ethyl acetate, stirred at 25° C.): Crystal type A
Appearance (3 days) ([2]; Isopropanol, 25° C.): Suspension
Results (crystalline state by XRPD) ([2]; Isopropanol, stirred at 25° C.): Crystal type A
Appearance (3 days) ([2]; Isopropanol:water = 1:1, 25° C.): Suspension
Results (crystalline state by XRPD) ([2]; Isopropanol:water = 1:1, stirred at 25° C.): Crystal type A
Appearance (3 days) ([2]; Methanol, 25° C.): Suspension
Results (crystalline state by XRPD) ([2]; Methanol, stirred at 25° C.): Crystal type A
Appearance (3 days) ([2]; Methanol:water = 3:1, 25° C.): Suspension
Results (crystalline state by XRPD) ([2]; Methanol:water = 3:1, stirred at 25° C.): Crystal type A

Cn1nnc2c(C(N)=O)ncn2c1=O [TMZ, temozolomide]
IC50 (MDA-MB-436 cells; [6]): 111 µM
IC50 (MDA-MB-436 cells; [7]): 80.2 µM
IC50 (MDA-MB-436 cells; MDA-MB-436, used singly, average, read-out: IC50_Avg): 107 µM
IC50 (MDA-MB-436 cells; MDA-MB-436, used singly, run N=1, read-out: IC50_N = 1): 152 µM
IC50 (MDA-MB-231 cells; [13]): 4.17 µM
IC50 (MDA-MB-231 cells; [14]): 4.61 µM
IC50 (MDA-MB-231 cells; [15]): 3.72 µM
IC50 (MDA-MB-231 cells; MDA-MB-231, used singly, average, read-out: IC50_Avg): 3.42 µM
IC50 (MDA-MB-231 cells; MDA-MB-231, used singly, run N=1, read-out: IC50_N = 1): 3.33 µM
IC50 (MDA-MB-231 cells; MDA-MB-231, used singly, run N=2, read-out: IC50_N = 2): 3.52 µM
